Tested on: human liver carcinoma cell lines including Hep G2, Hep 3G and Hep 5J
Assay: Summary of Examples 1 and 2 over the three liver carcinoma cell lines
Type: cell-based
Description: This example used human liver carcinoma cell lines including Hep G2, Hep 3G and Hep 5J for experiments, and the cells were cultured in 96-well plates. The experiments were divided into two groups including a pre-treatment group and a co-treatment group. The cells in the pre-treatment group were pre-treated with the Ganoderma ethanolic extracts for 24 hours and then treated with the amphotericin B for 48 hours, while the cells in the co-treatment group were co-treated with the Ganoderma ethanolic extracts and the amphotericin B together for 48 hours.
In the pre-treatment group, the cells were pre-treated with the Ganoderma ethanolic extracts at concentrations of 0, 1, 2.5 and 5 mg/ml for 24 hours, and then treated with the amphotericin B at concentrations between 0-80 μM for 48 hours, followed by MTT assay. In the co-treatment group, the cells were co-treated with the Ganoderma ethanolic extracts at concentrations of 0, 1, 2.5 and 5 mg/ml and the amphotericin B at concentrations between 0-80 μM for 48 hours, followed by MTT assay. The MTT solution (3-(4,5-Dimethylthiazol-2-yl)-2,5-diphenyltetrazolium bromide) was added to each well, and the plates were further incubated for 45-60 minutes. The cell culture medium was then removed and replaced by DMSO (dimethyl sulfoxide). Subsequently, the optical density (OD) was measured at 550 nm. […]

With `C[C@@H]1[C@H](O)[C@@H](C)/C=C/C=C/C=C/C=C/C=C/C=C/C=C/[C@H](O[C@@H]2O[C@H](C)[C@@H](O)[C@H](N)[C@@H]2O)C[C@@H]2O[C@](O)(C[C@@H](O)C[C@@H](O)[C@H](O)CC[C@@H](O)C[C@@H](O)CC(=O)O[C@H]1C)C[C@H](O)[C@H]2C(=O)O` [amphotericin B] as the compound, how does the “effective dose of the amphotericin B” value (after pre-treatment with the Ganoderma ethanolic extract, from the examples) read?
The value was “at least 3 μM”.

What about the “safe and effective dose of the amphotericin B” value (based on the results from Examples 1 and 2) of the same compound?
The value was 3 to 10 µM.
